Reference: patent publication US7795244B2, “Penem prodrugs” (priority 2006, dated 2010)
Converted amounts (≈) assume the structure as drawn.

Columns and labels:
Proteus mirabilis = assay: MIC90 in vitro activity of sulopenem; format: cell-based
[1] = system: Streptococcus pneumoniae penicillin-resistant; assay: MIC90 in vitro activity of sulopenem; format: cell-based
[2] = in vivo, po; cited from earlier work
[3] = system: Haemophilus influenzae β-lactamase−; assay: MIC90 in vitro activity of sulopenem; format: cell-based
[4] = system: Moraxella catarrhelis β-lactamase+; assay: MIC90 in vitro activity of sulopenem; format: cell-based
[5] = system: Haemophilus influenzae β-lactamase+; assay: MIC90 in vitro activity of sulopenem; format: cell-based
Clostridium perfringens = assay: microbe, parasite or virus in culture; format: cell-based
[6] = system: Streptococcus pneumoniae penicillin-intermediate; assay: MIC90 in vitro activity of sulopenem; format: cell-based
[7] = system: Viridans Streptococcus group; assay: MIC90 in vitro activity of sulopenem; format: cell-based
[8] = system: Streptococcus pneumoniae levofloxacin-resistant; assay: MIC90 in vitro activity of sulopenem; format: cell-based
[9] = system: Streptococcus bovis (Group D); assay: MIC90 in vitro activity of sulopenem; format: cell-based; details: Streptococcus equinus
Citrobacter diversus = assay: MIC90 in vitro activity of sulopenem; format: cell-based; details: Citrobacter koseri
Becteroides fragilis = assay: MIC90 in vitro activity of sulopenem; format: cell-based
Morganella morganii = assay: MIC90 in vitro activity of sulopenem; format: cell-based
Legionella pneumophila = assay: microbe, parasite or virus in culture; format: cell-based
Enterobacter aerogenes = assay: MIC90 in vitro activity of sulopenem; format: cell-based; details: Klebsiella aerogenes
[10] = system: Staphylococcus saprophyticus; assay: MIC90 in vitro activity of sulopenem; format: cell-based
Citrobacter freundii = assay: MIC90 in vitro activity of sulopenem; format: cell-based
Listeria monocytogenes = assay: MIC90 in vitro activity of sulopenem; format: cell-based
Procedure: (§1) The in vitro activity of sulopenem (the parent acid (5R,6S)-6-[(1R)-1-hydroxyethyl]-7-oxo-3-[[(1R3S)-tetrahydro-1-oxido-3thienyl]thio]4-thia-1-azabicyclo[3.2.0]hept-2-ene-2-carboxylic acid) was evaluated against pathogens involved in community and hospital infections, as summarized in Table 1. .

Klebsiella pneumoniae = assay: MIC90 in vitro activity of sulopenem; format: cell-based
Procedure: as §1

[11] = system: Staphylococcus aureus oxacillin-S; assay: MIC90 in vitro activity of sulopenem; format: cell-based
Procedure: as §1

[12] = system: Streptococcus agalactiae (Group B); assay: MIC90 in vitro activity of sulopenem; format: cell-based
Procedure: as §1

Prevotella spp = assay: MIC90 in vitro activity of sulopenem; format: cell-based
Procedure: as §1

Salmonella/Shigella = assay: MIC90 in vitro activity of sulopenem; format: cell-based
Procedure: as §1

Klebsiella oxytoca = assay: MIC90 in vitro activity of sulopenem; format: cell-based
Procedure: as §1

[13] = system: Streptococcus pneumoniae penicillin-susceptible; assay: MIC90 in vitro activity of sulopenem; format: cell-based
Escherichia coli = assay: MIC90 in vitro activity of sulopenem; format: cell-based
Alloiococcus otitidis = assay: MIC90 in vitro activity of sulopenem; format: cell-based; details: Alloiococcus otitis
[14] = system: Klebsiella pneumoniae ESBL+; assay: MIC90 in vitro activity of sulopenem; format: cell-based
[15] = system: Streptococcus pyogenes (Group A); assay: MIC90 in vitro activity of sulopenem; format: cell-based
[16] = system: Moraxella catarrhalis β-lactamase−; assay: MIC90 in vitro activity of sulopenem; format: cell-based
Neisseria meningitides = assay: MIC90 in vitro activity of sulopenem; format: cell-based
[17] = system: Corynebacterium spp (not C. jeikeium); assay: MIC90 in vitro activity of sulopenem; format: cell-based
Enterobacter cloacae = assay: MIC90 in vitro activity of sulopenem; format: cell-based

C[C@@H](O)[C@H]1C(=O)N2C(C(=O)O)=C(S[C@H]3CC[S@@+]([O-])C3)S[C@H]12 [Sulopenem, (5R,6S)-6-[(1R)-1-hydroxyethyl]-7-oxo-3-[[(1R,3S)-tetrahydro-1-oxido-3-thienyl]thio]-4-thia-1-azabicyclo[3,2.0]hept-2-ene-2-carboxylic acid]
MIC90 (Proteus mirabilis): 0.5 µg/mL (≈ 1.43 µM) | MIC90 [1]: 1 µg/mL (≈ 2.86 µM) | oral bioavailability (in words) [2]: not appreciably orally bioavailable | MIC90 [3]: 0.25 µg/mL (≈ 0.715 µM) | MIC90 [4]: 0.125 µg/mL (≈ 0.358 µM) | MIC90 [5]: 0.5 µg/mL (≈ 1.43 µM) | MIC90 (Clostridium perfringens): 0.06 µg/mL (≈ 0.172 µM) | MIC90 [6]: 0.25 µg/mL (≈ 0.715 µM) | MIC90 [7]: 0.25 µg/mL (≈ 0.715 µM) | MIC90 [8]: 0.5 µg/mL (≈ 1.43 µM) | MIC90 [9]: 0.06 µg/mL (≈ 0.172 µM) | MIC90 (Citrobacter diversus): 0.06 µg/mL (≈ 0.172 µM) | MIC90 (Becteroides fragilis): 0.5 µg/mL (≈ 1.43 µM) | MIC90 (Morganella morganii): 2 µg/mL (≈ 5.72 µM) | MIC90 (Legionella pneumophila): 0.06 µg/mL (≈ 0.172 µM) | MIC90 (Enterobacter aerogenes): 0.5 µg/mL (≈ 1.43 µM) | MIC90 [10]: 0.5 µg/mL (≈ 1.43 µM) | MIC90 (Citrobacter freundii): 0.25 µg/mL (≈ 0.715 µM) | MIC90 (Listeria monocytogenes): 0.125 µg/mL (≈ 0.358 µM) | MIC90 (Klebsiella pneumoniae): 0.125 µg/mL (≈ 0.358 µM) | MIC90 [11]: 0.125 µg/mL (≈ 0.358 µM) | MIC90 [12]: 0.125 µg/mL (≈ 0.358 µM) | MIC90 (Prevotella spp): 0.125 µg/mL (≈ 0.358 µM) | MIC90 (Salmonella/Shigella): 0.125 µg/mL (≈ 0.358 µM) | MIC90 (Klebsiella oxytoca): 0.125 µg/mL (≈ 0.358 µM) | MIC90 [13]: 0.03 µg/mL (≈ 0.0858 µM) | MIC90 (Escherichia coli): 0.06 µg/mL (≈ 0.172 µM) | MIC90 (Alloiococcus otitidis): 1 µg/mL (≈ 2.86 µM) | MIC90 [14]: 0.25 µg/mL (≈ 0.715 µM) | MIC90 [15]: 0.03 µg/mL (≈ 0.0858 µM) | MIC90 [16]: 0.03 µg/mL (≈ 0.0858 µM) | MIC90 (Neisseria meningitides): 0.06 µg/mL (≈ 0.172 µM) | MIC90 [17]: 2 µg/mL (≈ 5.72 µM) | MIC90 (Enterobacter cloacae): 1 µg/mL (≈ 2.86 µM)
